The text below walks through data of patent US20010051646A1, “Method for the improvement of islet signaling in diabetes mellitus and for its prevention” (priority 2000, published 2001).

Several values for one entry are separate records, joined by “and”; a condition that tells them apart may be missing. Identical values can stand only once. Entries after “also recorded” stand apart in the source; their conditions may differ. Some results are limits rather than exact numbers.

The subject of test [1] is Male Zucker fa/fa rats. The experiment in a line: Repeated once-daily oral dosing: morning blood glucose and plasma insulin. It counts as in vivo, rat. Here is the method:
The parameters monitored were morning blood glucose and plasma insulin levels. In a day-night profile, glycemia and insulinaemia were monitored from day 16 to day 17. An OGTT was performed finally on day 21 to monitor blood glucose and plasma insulin kinetics to assess changes in glucose tolerance. Glibenclamide (DAB 1996; R011150/33372) was donated by Berlin-Chemie (Berlin, Germany). Male Zucker (fa/fa) rats of the body weight class of 300 g were purchased from Charles River (Sulzfeld, Germany).
Housing Conditions: Animals were kept single-housed under conventional conditions with controlled temperature (22±2° C.) on a 12/12 hours light/dark cycle (light on at 06:00 a.m.). Standard pellets (ssniff®, Soest, Germany) and tap water acidified with HCl were allowed ad libitum.
Catheterization of Carotid Artery: After one week of adaptation carotid catheters were implanted in the rats under general anesthesia (injection of 0.25 ml/kg i.p. Rompun® [2%], Bayer, Germany) and 0.5 ml/kg i.p. Velonarkon® (Arzneimittelwerk Dresden, Germany). The animals were allowed to recover for one week. The catheter was flushed with heparin-saline (100 IU/ml) three times per week.
Thereafter, the non-diabetic Wistar rats were treated orally once daily with RP (5 mg/kg b.w.) or TP (21.61 mg/kg b.w.) and the diabetic Zucker rats were treated orally once daily with RP (1 mg/kg b.w.) or TP (21.61 mg/kg b.w.) for 21 days at 05.00 p.m. (before regular food intake in the dark phase). The controls were given 1% cellulose solution orally (5 ml/kg). Blood samples were taken every morning at 07.30 a.m. from tail veins for measurement of blood glucose and plasma insulin. The last blood samples of this part of the program were taken at 07.30 a. m. on the 15th day to measure blood glucose and plasma insulin. The oral drug therapy was continued for one week. Recording the day-night profile under the above therapy blood glucose (Δt=3 h) and plasma insulin (Δt=3-6 h) were monitored from day 16 (at 05.00 p.m. beginning) to day 17 (at 02.00 p.m. end).
Blood glucose: Glucose levels were measured using the glucose oxidase procedure (Super G Glukosemeβgerät; Dr. Müller Gerätebau, Freital, Germany).
Plasma insulin: Insulin concentrations were assayed by the antibody RIA method (LINCO Research, Inc. St. Charles, Mo., USA).

Test [2] has as its system Male Zucker fa/fa rats. The experiment in a line: OGTT after 21 days treatment: blood glucose and plasma insulin. It counts as in vivo, rat. Here is the method:
The parameters monitored were morning blood glucose and plasma insulin levels. […] An OGTT was performed finally on day 21 to monitor blood glucose and plasma insulin kinetics to assess changes in glucose tolerance. Glibenclamide (DAB 1996; R011150/33372) was donated by Berlin-Chemie (Berlin, Germany). Male Zucker (fa/fa) rats of the body weight class of 300 g were purchased from Charles River (Sulzfeld, Germany). Repeated Dosing: 30 male non-diabetic Wistar and 30 male diabetic Zucker rats were randomized to RP (Reference Product: glibenclamide)-, TP- (jest Product: […] Thereafter, the non-diabetic Wistar rats were treated orally once daily with RP (5 mg/kg b.w.) or TP (21.61 mg/kg b.w.) and the diabetic Zucker rats were treated orally once daily with RP (1 mg/kg b.w.) or TP (21.61 mg/kg b.w.) for 21 days at 05.00 p.m. (before regular food intake in the dark phase). The controls were given 1% cellulose solution orally (5 ml/kg). […] The oral drug therapy was continued for one week. […] OGTT: A final OGTT was performed on day 21 with blood sampling from the tail vein. […] The latter were immediately centrifuged and the plasma fractions were stored at −20 ° C. for insulin analysis. Blood glucose: Glucose levels were measured using the glucose oxidase procedure (Super G Glukosemeβgerät; Dr. Müller Gerätebau, Freital, Germany). Plasma insulin: Insulin concentrations were assayed by the antibody RIA method (LINCO Research, Inc. St. Charles, Mo., USA).

As to “isoleucyl thiazolidine hemifumarate [P32/98]”, in the test on Male Zucker fa/fa rats [1] (given once daily), the Hyperinsulinemia entry is on record as “reduced” and the Morning blood glucose entry was “normalized”. Besides, in the test on Male Zucker fa/fa rats [1] (once daily oral), the “Time until morning blood glucose was reduced to a normal value” is listed as at most 5 days. Moreover, the “Plasma insulin during 14 days in comparison to the control animals” value with Male Zucker fa/fa rats [1] (rat, in vivo) was “slightly decrease insulin concentration”. In the test with Male Zucker fa/fa rats [2] (05.00 p.m., night before day 21), the “Glycemia at the last drug application” value is 5.75 ± 0.23 mmol/L. Besides, in the test on Male Zucker fa/fa rats [2] (day 21), the “G-AUC in comparison to the placebo application” value was “did not increase” and the “Mean blood glucose curve in the OGTT versus controls” value is on record as “not different from that of the controls”. In the test with Male Zucker fa/fa rats [2] (day 21, 50 min), the “Blood glucose during OGTT” value came to 14.54 ± 0.65 mmol/L. The “Blood glucose during OGTT” value in the test on Male Zucker fa/fa rats [2] (day 21, 120 min) came out at 10.67 ± 0.62 mmol/L. The “Glycemia after overnight fasting (basal, before OGTT)” value in the test with Male Zucker fa/fa rats [2] (day 21, morning (07.30 a. m.)) is 4.88 ± 0.13 mmol/L. The “Fasting plasma insulin at the beginning of the OGTT” value with Male Zucker fa/fa rats [2] (day 21, overnight fasting, listed as TP) is 9.3 ± 1.5 ng/mL and ~9 ng/mL. Moreover, in the test on Male Zucker fa/fa rats [2] (day 21 OGTT), the “Plasma insulin after a glucose stimulus” value is on record as “remained mostly unchanged”. Also, the “Glucose area under the curve (G-AUC0-120 min)” value with Male Zucker fa/fa rats [2] (day 21 OGTT, CO-group 823±41) amounted to 895 ± 50 mmol·min/L. In addition, the “I-AUC0-120 min compared with the other groups” value with Male Zucker fa/fa rats [2] (day 21 OGTT, listed as TP) is recorded as “lower than in the CO- or RP-groups (NS); also recorded: slightly lower”.
